From ChEMBL document CHEMBL3774317, “Design and synthesis of novel tamoxifen analogues that avoid CYP2D6 metabolism” (Eur J Med Chem, 2016) come the findings set out here.

Type in all cases: functional
The nature of assay [1]: Cytotoxicity against human HCT116 cells assessed as cell growth at 10^-6 M after 48 hrs by SRB assay. The conditions noted are these: HCT-116, 48 h, read-out: Activity.
The subject of the next assay is SK-MEL-28. Description: Cytotoxicity against human SK-MEL-28 cells assessed as cell growth at 10^-6 M after 48 hrs by SRB assay. The conditions noted are these: SK-MEL-28, 48 h, read-out: Activity.
Another assay has as its system CCRF-CEM. Description: Cytotoxicity against human CCRF-CEM cells assessed as cell growth at 10^-7 M after 48 hrs by SRB assay. The settings on record: read-out: Activity.
The nature of assay [2]: Cytotoxicity against human HCT15 cells assessed as cell growth at 10^-8 M after 48 hrs by SRB assay. The conditions noted are these: HCT-15, 48 h, read-out: Activity.
A short description of assay [3]: Cytotoxicity against human IGROV1 cells assessed as cell growth at 10^-8 M after 48 hrs by SRB assay. The conditions noted are these: IGROV-1, 48 h, read-out: Activity.
Assay [4] in a line: Cytotoxicity against human OVCAR3 cells assessed as cell growth at 10^-7 M after 48 hrs by SRB assay. The settings on record: OVCAR-3, 48 h, read-out: Activity.
Assay [5] in a line: Cytotoxicity against human COLO205 cells assessed as cell growth at 10^-5 M after 48 hrs by SRB assay. The conditions noted are these: COLO 205, 48 h, read-out: Activity.
In assay [6] the test system is A498. Description: Cytotoxicity against human A498 cells assessed as cell growth at 10^-4 M after 48 hrs by SRB assay. The settings on record: A498, 48 h, read-out: Activity.
A short description of assay [7]: Cytotoxicity against human HCC2998 cells assessed as cell growth at 10^-8 M after 48 hrs by SRB assay. The conditions noted are these: HCC 2998, 48 h, read-out: Activity.
A short description of assay [8]: Cytotoxicity against human RXF393 cells assessed as cell growth at 10^-7 M after 48 hrs by SRB assay. The conditions noted are these: RXF 393, 48 h, read-out: Activity.
In a further assay the test system is Malme-3M. Put plainly: Cytotoxicity against human MALME-3M cells assessed as cell growth at 10^-6 M after 48 hrs by SRB assay. The conditions noted are these: read-out: Activity.
Assay [9] can be described thus: Cytotoxicity against human OVCAR4 cells assessed as cell growth at 10^-8 M after 48 hrs by SRB assay. The conditions noted are these: OVCAR-4, 48 h, read-out: Activity.
Assay [10] deals with M14. Put plainly: Cytotoxicity against human M14 cells assessed as cell growth at 10^-7 M after 48 hrs by SRB assay. The conditions noted are these: M14, 48 h, read-out: Activity.
For another assay, the system named is SN12C. Put plainly: Cytotoxicity against human SN12C cells assessed as cell growth at 10^-5 M after 48 hrs by SRB assay. The settings on record: read-out: Activity.
For the next assay, the system named is NCI-H226. Put plainly: Cytotoxicity against human NCI-H226 cells assessed as cell growth at 10^-5 M after 48 hrs by SRB assay. The settings on record: NCI-H226, 48 h, read-out: Activity.
Assay [11] can be described thus: Cytotoxicity against human OVCAR4 cells assessed as cell growth at […] after 48 hrs by SRB assay. The settings on record: OVCAR-4, 48 h, read-out: Activity.
Another assay relates to NCI-H460. Description: Cytotoxicity against human NCI-H460 cells assessed as cell growth at 10^-8 M after 48 hrs by SRB assay. The settings on record: NCI-H460, 48 h, read-out: Activity.
In assay [12] the test system is NCI-H23. Description: Cytotoxicity against human NCI-H23 cells assessed as cell growth at 10^-7 M after 48 hrs by SRB assay. The settings on record: NCI-H23, 48 h, read-out: Activity.
Assay [13] is described as follows: Cytotoxicity against human SNB75 cells assessed as cell growth at 10^-7 M after 48 hrs by SRB assay. The settings on record: SNB-75, 48 h, read-out: Activity.
The nature of assay [14]: Cytotoxicity against human UO31 cells assessed as cell growth at 10^-5 M after 48 hrs by SRB assay. The conditions noted are these: UO-31, 48 h, read-out: Activity.
For another assay, the system named is SK-MEL-5. Put plainly: Cytotoxicity against human SK-MEL-5 cells assessed as cell growth at 10^-6 M after 48 hrs by SRB assay. The settings on record: SK-MEL-5, 48 h, read-out: Activity.
Assay [15] in a line: Cytotoxicity against human HOP62 cells assessed as cell growth at 10^-8 M after 48 hrs by SRB assay. The settings on record: HOP-62, 48 h, read-out: Activity.
A further assay concerns NCI-H322M. Description: Cytotoxicity against human NCI-H322M cells assessed as cell growth at 10^-5 M after 48 hrs by SRB assay. The settings on record: read-out: Activity.
Assay [16] in a line: Cytotoxicity against human OVCAR3 cells assessed as cell growth at 10^-6 M after 48 hrs by SRB assay. The conditions noted are these: OVCAR-3, 48 h, read-out: Activity.
Assay [17] in a line: Cytotoxicity against human PC3 cells assessed as cell growth at 10^-7 M after 48 hrs by SRB assay. The conditions noted are these: PC-3, 48 h, read-out: Activity.
Assay [18] is described as follows: Cytotoxicity against human SF295 cells assessed as cell growth at 50 uM after 48 hrs by SRB assay. The settings on record: SF-295, 48 h, read-out: Activity.
Assay [19] has as its system M14. Put plainly: Cytotoxicity against human M14 cells assessed as cell growth at 5 nM after 48 hrs by SRB assay. The settings on record: M14, 48 h, read-out: Activity.
Assay [20] can be described thus: Cytotoxicity against human HOP62 cells assessed as cell growth at 50 nM after 48 hrs by SRB assay. The settings on record: HOP-62, 48 h, read-out: Activity.
Assay [21] can be described thus: Cytotoxicity against human RPMI8226 cells assessed as cell growth at 50 uM after 48 hrs by SRB assay. The conditions noted are these: RPMI-8226, 48 h, read-out: Activity.
The test system of another assay is KM12. Description: Cytotoxicity against human KM12 cells assessed as cell growth at 5 uM after 48 hrs by SRB assay. The conditions noted are these: KM12, 48 h, read-out: Activity.
Assay [22] concerns NCI-H23. Description: Cytotoxicity against human NCI-H23 cells assessed as cell growth at 50 uM after 48 hrs by SRB assay. The settings on record: NCI-H23, 48 h, read-out: Activity.
Assay [23] can be described thus: Cytotoxicity against human DU145 cells assessed as cell growth at 5 uM after 48 hrs by SRB assay. The conditions noted are these: DU-145, 48 h, read-out: Activity.
The subject of a further assay is EKVX. Put plainly: Cytotoxicity against human EKVX cells assessed as cell growth at 5 nM after 48 hrs by SRB assay. The conditions noted are these: read-out: Activity.
In the next assay the test system is NCI-H522. Put plainly: Cytotoxicity against human NCI-H522 cells assessed as cell growth at 50 nM after 48 hrs by SRB assay. The settings on record: NCI-H522, 48 h, read-out: Activity.
Assay [24] is described as follows: Cytotoxicity against human DU145 cells assessed as cell growth at 50 uM after 48 hrs by SRB assay. The settings on record: DU-145, 48 h, read-out: Activity.
A short description of assay [25]: Cytotoxicity against human OVCAR4 cells assessed as cell growth at 0.5 uM after 48 hrs by SRB assay. The settings on record: OVCAR-4, 48 h, read-out: Activity.
The nature of assay [26]: Cytotoxicity against human OVCAR8 cells assessed as cell growth at 5 uM after 48 hrs by SRB assay. The settings on record: OVCAR-8, 48 h, read-out: Activity.
A short description of assay [27]: Cytotoxicity against human SNB75 cells assessed as cell growth at 0.5 uM after 48 hrs by SRB assay. The conditions noted are these: SNB-75, 48 h, read-out: Activity.
The nature of assay [28]: Cytotoxicity against human HCT116 cells assessed as cell growth at 5 nM after 48 hrs by SRB assay. The conditions noted are these: HCT-116, 48 h, read-out: Activity.
Assay [29] is described as follows: Cytotoxicity against human HOP92 cells assessed as cell growth at 5 nM after 48 hrs by SRB assay. The conditions noted are these: HOP-92, 48 h, read-out: Activity.
For assay [30], the system named is A498. Description: Cytotoxicity against human A498 cells assessed as cell growth at 50 nM after 48 hrs by SRB assay. The settings on record: A498, 48 h, read-out: Activity.

In the case of `C/C(=C(/c1ccc(O)cc1)c1ccc(OCCN2CCCC2)cc1)c1ccccc1`, the growth at 1 µM in assay [1] came out at 93%; with SK-MEL-28, 85%; in the assay with Malme-3M, 88%; in the assay with SK-MEL-5, 96%; in assay [16] it was 97%. In addition, the growth at 0.1 µM is 113% in the assay with CCRF-CEM; 99% in [4]; 105% in assay [8]; 93% in the assay with M14 [10]; 95% in [11]; 94% in the assay on NCI-H23 [12]. Besides, the growth at 0.1 µM was determined as 83% in assay [13] and 105% in assay [17]. Also, the growth at 0.01 µM came out at 92% in assay [2]; 106% in [3]; 100% in assay [7]; 90% in assay [9]; 106% in the assay with NCI-H460; 90% in [15]. Moreover, the growth at 10 µM was -79% in [5]; 48% in the assay on SN12C; 56% in the assay with NCI-H226; -25% in [14]; 34% in the assay on NCI-H322M. In the assay with A498 [6], the growth at 100 µM was -82%.

In the case of `CCCCCCCCCC(=O)Oc1ccc(/C(=C(/C)c2ccccc2)c2ccc(OCCN3CCCC3)cc2)cc1`, the growth at 50 µM in [18] is -94%; in assay [21], -52%; in the assay with NCI-H23 [22], -78%; in [24], -99%. Further, the growth at 0.005 µM in the assay on M14 [19] was 98%; in the assay on EKVX, 102%; in [28], 98%; in [29], 86%. In addition, the values for the growth at 0.05 µM (in assay [20]; in the assay with NCI-H522; in the assay on A498 [30]) were 95%, 98% and 53%, respectively. Also, the values for the growth at 5 µM (in the assay with KM12; in assay [23]; in assay [26]) were 94%, 88% and 95%, respectively. Moreover, the growth at 0.5 µM in [25] and in assay [27] was 68% in each case.
